Laboratory results published in patent EP0259838A2, “Pharmaceutical composition containing A 1,4-dihydropyridine derivative and an acylated 1,2,3,4-tetrahydroisoquinoline-3-carboxylic acid” (priority 1986, dated 1988).

Key:
[1] = test system: Renal Hypertensive Rats; assay: Antihypertensive activity in renal hypertensive rats (tail-cuff systolic blood pressure and heart rate); type: in vivo, rats (Male Sprague-Dawley); conditions: single dose po, nicardipine 3 mg/kg, ACE inhibitor 10 mg/kg, combination 3 + 10 mg/kg, n = 6
Procedure: Twenty-four renal hypertensive rates (Male Sprague-Dawley, 140-170g) showing systolic blood pressure of 160 mmHg or greater were chosen for the study. Using the random block design, they were distributed into four groups: 3 groups for compound treatments and one for vehicle control. They were randomly assigned to the treatments. The test compounds were dissolved in deionized water at concentrations such that 1.0 ml of solution was administered per 100 grams of body weight.
At approximately 17 hours prior to dosing, food was removed from the rat cages. On the morning of testing, the rats were dosed with the assigned compound or vehicle by gavage. Immediately after dosing, the rats were put in restrainers and placed in a heated chamber, 30 degrees centrigrade, for four hours. After the four hour reading, the rats were returned to their home cage for 3 hours and then were put in the restrainer again for the hour 8 reading.
Using a tail blood pressure cuff, blood pressure curves and tail pulses were simultaneously monitored on a 4-channel MFE recorder digitized by a computer system. At least four consecutive traces (at 30 second intervals) were recorded for each rat at 1, 2, 4 and 8 hour post-dose.
The computer system has been programmed to find systolic blood pressure (mmHg) and heart rate (beats/min) for each recording and them calculate the mean SBP and the mean HR of each rat at each observation time. Manual editing and confirmation of the analyses were carried out by the investigator on any systolic blood pressure traces that were more than two standard deviations outside the mean blood pressure readings for that animal at a given time period.
The SBP's of the animals in each dose group were compared to the SBP's of the animals in the control group at each observation time using oneway analysis of variance. Significance was determined using the Dunnet test.

[2] = test system: CD rats; conditions: rat, in vivo; cited from earlier work

Row | Structure (SMILES) | HR % Chg (Chg from Control) ([1]; 1 Hr post-dose) [%] | HR b/min. Chg (Chg from Control) ([1]; 1 Hr post-dose) [b/min.] | SBP % Chg (Chg from Control) ([1]; 1 Hr post-dose) [%] | SBP mmHg Chg (Chg from Control) ([1]; 1 Hr post-dose) [mmHg] | HR % Chg (Chg from Control) ([1]; 2 Hr post-dose) [%] | HR b/min. Chg (Chg from Control) ([1]; 2 Hr post-dose) [b/min.] | SBP % Chg (Chg from Control) ([1]; 2 Hr post-dose) [%] | SBP mmHg Chg (Chg from Control) ([1]; 2 Hr post-dose) [mmHg] | HR % Chg (Chg from Control) ([1]; 4 Hr post-dose) [%] | HR b/min. Chg (Chg from Control) ([1]; 4 Hr post-dose) [b/min.] | SBP % Chg (Chg from Control) ([1]; 4 Hr post-dose) [%] | SBP mmHg Chg (Chg from Control) ([1]; 4 Hr post-dose) [mmHg] | HR % Chg (Chg from Control) ([1]; 8 Hr post-dose) [%] | HR b/min. Chg (Chg from Control) ([1]; 8 Hr post-dose) [b/min.] | SBP % Chg (Chg from Control) ([1]; 8 Hr post-dose) [%] | SBP mmHg Chg (Chg from Control) ([1]; 8 Hr post-dose) [mmHg] | clinical sign noted previously in studies in rats [2]
1 | CCOC(=O)[C@H](CCc1ccccc1)N[C@@H](C)C(=O)N1Cc2cc(OC)c(OC)cc2C[C@H]1C(=O)O [2-{2-[(1-ethoxycarbonyl)-3-phenylpropyl]amino}-1-oxopropyl-1,2,3,4-tetrahydro-6,7-dimethoxy-3-isoquinoline carboxylic acid] | 29 | 87 | -8 | -14 | 4 | 11 | -7 | -13 | 4 | 10 | 3 | 4 | -11 | -33 | -7 | -12 | 
2 | COC(=O)C1=C(C)NC(C)=C(C(=O)OCCN(C)Cc2ccccc2)C1c1cccc([N+](=O)[O-])c1 (stereo not drawn) [nicardipine, 2,6-dimethyl-4-(3ʹ-nitrophenyl)-1,4-dihydropyridine-3,5-dicarboxylic acid-3-methyl ester-5-β-(N-benzyl-N-methylamino)-ethyl ester] | 22 | 65 | -3 | -5 | 10 | 30 | -4 | -7 | 9 | 25 | -6 | -10 | -2 | -4 | -20 | -35 | pink skin (peripheral vasodilation)
